Reference: US20240116910A1, “Heterocycles as WIP1 Inhibitors” (PMV Pharmaceuticals, Inc., priority 2022, published 2024)

Molecular target: recombinant His-tag Wip1(2-420) protein (amino acids #2-420) (Homo sapiens (Human), UniProt O15297)
Test: Wip1(2-420) phosphatase enzyme FDP assay
Type: biochemical
Conditions: fluorescein diphosphate (FDP) substrate, RT 2 hours, fluorescence Ex485/Em535; read-out: WIP1 (Truncated 2-420) FDP Assay: IC50

Sequence of recombinant His-tag Wip1(2-420) protein (amino acids #2-420) (O15297 2-420): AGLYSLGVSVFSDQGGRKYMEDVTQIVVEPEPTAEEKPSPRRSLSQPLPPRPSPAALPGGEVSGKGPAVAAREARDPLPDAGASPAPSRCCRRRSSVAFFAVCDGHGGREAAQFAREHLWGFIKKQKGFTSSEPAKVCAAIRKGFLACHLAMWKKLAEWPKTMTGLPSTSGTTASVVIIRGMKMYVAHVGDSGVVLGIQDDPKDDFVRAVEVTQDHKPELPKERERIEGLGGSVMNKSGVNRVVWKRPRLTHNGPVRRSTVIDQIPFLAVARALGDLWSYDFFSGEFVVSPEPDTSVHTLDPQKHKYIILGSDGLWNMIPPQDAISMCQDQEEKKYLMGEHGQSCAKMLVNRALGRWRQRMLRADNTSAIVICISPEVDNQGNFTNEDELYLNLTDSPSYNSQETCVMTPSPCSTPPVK

Row | IC50 | SMILES
1 | 7 nM | COc1ccc(-c2ncc(Cl)cc2N[C@@H](C)c2ccc(C(=O)N[C@@H](CC3CCCC3)C(=O)NC3CC3)s2)cc1 [Compound 236, (2S)-2-({5-[(1S)-1-{[5-chloro-2-(4-methoxyphenyl)pyridin-3-yl]amino}ethyl]thiophen-2-yl}formamido)-3-cyclopentyl-N-cyclopropylpropanamide]
2 | 8 nM | Cc1ncc(Cl)cc1N[C@@H](C)c1ccc(C(=O)N[C@@H](CC2CCCC2)C(=O)NC2CC3(COC3)C2)s1 [Compound 237, (2S)-2-({5-[(1S)-1-[(5-chloro-2-methylpyridin-3-yl)amino]ethyl]thiophen-2-yl}formamido)-3-cyclopentyl-N-{2-oxaspiro[3.3]heptan-6-yl}propanamide]
3 | 188 nM | COc1ccc(-c2ncc(Cl)cc2N[C@H](C)c2ccc(C(=O)N[C@@H](CC3CCCC3)C(=O)NC3CC3)s2)cc1 [Compound 238, (2S)-2-({5-[(1R)-1-{[5-chloro-2-(4-methoxyphenyl)pyridin-3-yl]amino}ethyl]thiophen-2-yl}formamido)-3-cyclopentyl-N-cyclopropylpropanamide]
4 | 330 nM | COc1ccccc1-c1ncc(Cl)cc1N[C@H](C)c1ccc(C(=O)N[C@@H](CC2CCCC2)C(=O)NC2CC2)s1 [Compound 241, (2S)-2-({5-[(1R)-1-{[5-chloro-2-(2-methoxyphenyl)pyridin-3-yl]amino}ethyl]thiophen-2-yl}formamido)-3-cyclopentyl-N-cyclopropylpropanamide]
5 | 7 nM | COc1ccccc1-c1ncc(Cl)cc1N[C@@H](C)c1ccc(C(=O)N[C@@H](CC2CCCC2)C(=O)NC2CC2)s1 [Compound 242, (2S)-2-({5-[(1S)-1-{[5-chloro-2-(2-methoxyphenyl)pyridin-3-yl]amino}ethyl]thiophen-2-yl}formamido)-3-cyclopentyl-N-cyclopropylpropanamide]
6 | 4 nM | Cc1ncc(Cl)cc1N[C@@H](C)c1ccc(C(=O)N[C@@H](CC2CCCC2)C(=O)Nc2ccc3ncccc3c2)s1 [Compound 243, (2S)-2-({5-[(1S)-1-[(5-chloro-2-methylpyridin-3-yl)amino]ethyl]thiophen-2-yl}formamido)-3-cyclopentyl-N-(quinolin-6-yl)propanamide]
7 | 8 nM | Cc1cc(NC(=O)[C@H](CC2CCCCC2)NC(=O)c2ccc([C@H](C)Nc3cc(Cl)cnc3C)s2)ccn1 [Compound 252, (2S)-2-({5-[(1S)-1-[(5-chloro-2-methylpyridin-3-yl)amino]ethyl]thiophen-2-yl}formamido)-3-cyclohexyl-N-(2-methylpyridin-4-yl)propanamide]
8 | 11 nM | COc1ccc(Cl)cc1N[C@@H](C)c1ccc(C(=O)N[C@@H](CC2CCCC2)C(=O)NC2CC2)s1 [Compound 254, (2S)-2-({5-[(1S)-1-[(5-chloro-2-methoxyphenyl)amino]ethyl]thiophen-2-yl}formamido)-3-cyclopentyl-N-cyclopropylpropanamide]
9 | 7 nM | Cc1ncc(Cl)cc1N[C@@H](C)c1ccc(C(=O)N[C@@H](CC2CCCC2)C(=O)N[C@@H]2CC[C@H](F)C2)s1 [Compound 258, (2S)-2-({5-[(1S)-1-[(5-chloro-2-methylpyridin-3-yl)amino]ethyl]thiophen-2-yl}formamido)-3-cyclopentyl-N-[(1R,3S)-3-fluorocyclopentyl]propanamide]
10 | 13 nM | C[C@@H](Nc1cc(Cl)nc2ccnn12)c1ccc(C(=O)N[C@@H](CC2CCCC2)C(=O)NC2CC2)s1 [Compound 259, (2S)-2-({5-[(1R)-1-({5-chloropyrazolo[1,5-a]pyrimidin-7-yl}amino)ethyl]thiophen-2-yl}formamido)-3-cyclopentyl-N-cyclopropylpropanamide]
11 | 210 nM | C[C@H](Nc1cc(Cl)nc2ccnn12)c1ccc(C(=O)N[C@@H](CC2CCCC2)C(=O)NC2CC2)s1 [Compound 260, (2S)-2-({5-[(1S)-1-({5-chloropyrazolo[1,5-a]pyrimidin-7-yl}amino)ethyl]thiophen-2-yl}formamido)-3-cyclopentyl-N-cyclopropylpropanamide]
12 | 40 nM | Cc1ncc(Cl)cc1N[C@H](Cc1ccccc1)c1ccc(C(=O)N[C@@H](CC2CCCC2)C(=O)NC2CC2)s1 [Compound 261, (2S)-2-({5-[(1R)-1-[(5-chloro-2-methylpyridin-3-yl)amino]-2-phenylethyl]thiophen-2-yl}formamido)-3-cyclopentyl-N-cyclopropylpropanamide]
13 | 6 nM | Cc1ncc(Cl)cc1N[C@@H](Cc1ccccc1)c1ccc(C(=O)N[C@@H](CC2CCCC2)C(=O)NC2CC2)s1 [Compound 262, (2S)-2-({5-[(1S)-1-[(5-chloro-2-methylpyridin-3-yl)amino]-2-phenylethyl]thiophen-2-yl}formamido)-3-cyclopentyl-N-cyclopropylpropanamide]

Continued, molecule first:

Row | SMILES | IC50
14 | Cc1ncc(Cl)cc1N[C@@H](C)c1ccc(C(=O)N[C@H](C(=O)NC2CC2)C(C)(C)C)s1 [Compound 235, (2S)-2-({5-[(1S)-1-[(5-chloro-2-methylpyridin-3-yl)amino]ethyl]thiophen-2-yl}formamido)-N-cyclopropyl-3,3-dimethylbutanamide] | 5660 nM
15 | C[C@@H](c1ccc(C(=O)N[C@@H](CC2CCCC2)C(=O)NC2CC2)s1)N1CCN(C)c2ccc(Cl)cc21 [Compound 239, (2S)-2-({5-[(1S)-1-(7-chloro-4-methyl-1,2,3,4-tetrahydroquinoxalin-1-yl)ethyl]thiophen-2-yl}formamido)-3-cyclopentyl-N-cyclopropylpropanamide] | 38 nM
16 | C[C@H](c1ccc(C(=O)N[C@@H](CC2CCCC2)C(=O)NC2CC2)s1)N1CCN(C)c2ccc(Cl)cc21 [Compound 240, (2S)-2-({5-[(1R)-1-(7-chloro-4-methyl-1,2,3,4-tetrahydroquinoxalin-1-yl)ethyl]thiophen-2-yl}formamido)-3-cyclopentyl-N-cyclopropylpropanamide] | 154 nM
17 | Cc1ncc(Cl)cc1N[C@@H](C)c1ccc(C(=O)N[C@@H](C[C@H]2CCC3CC32)C(=O)NC23CC(C2)C3)s1 (stereo partly drawn) [Compound 244, (2S)-N-{bicyclo[1.1.1]pentan-1-yl}-3-[(2R)-bicyclo[3.1.0]hexan-2-yl]-2-({5-[(1S)-1-[(5-chloro-2-methylpyridin-3-yl)amino]ethyl]thiophen-2-yl}formamido)propanamide] | 5 nM
18 | Cc1ncc(Cl)cc1N[C@@H](C)c1ccc(C(=O)N[C@@H](C[C@@H]2CCC3CC32)C(=O)NC23CC(C2)C3)s1 (stereo partly drawn) [Compound 245, (2S)-N-{bicyclo[1.1.1]pentan-1-yl}-3-[(2S)-bicyclo[3.1.0]hexan-2-yl]-2-({5-[(1S)-1-[(5-chloro-2-methylpyridin-3-yl)amino]ethyl]thiophen-2-yl}formamido)propanamide] | 10 nM
19 | Cc1ncc(Cl)cc1N[C@@H](C)c1ccc(C(=O)N[C@H](C(=O)NC23CC(C2)C3)C(C)(C)C)s1 [Compound 246, (2S)-N-{bicyclo[1.1.1]pentan-1-yl}-2-({5-[(1S)-1-[(5-chloro-2-methylpyridin-3-yl)amino]ethyl]thiophen-2-yl}formamido)-3,3-dimethylbutanamide] | 2210 nM
20 | Cc1ncc(Cl)cc1N[C@@H](C)c1ccc(C(=O)N[C@@H](C(=O)NC23CC(C2)C3)C(C)(C)C)s1 [Compound 247, (2R)-N-{bicyclo[1.1.1]pentan-1-yl}-2-({5-[(1S)-1-[(5-chloro-2-methylpyridin-3-yl)amino]ethyl]thiophen-2-yl}formamido)-3,3-dimethylbutanamide] | > 10000 nM
21 | C[C@@H](c1ccc(C(=O)N[C@@H](CC2CCCC2)C(=O)NC2CC2)s1)N1CCCc2ccc(Cl)cc21 [Compound 248, (2S)-2-({5-[(1S)-1-(7-chloro-1,2,3,4-tetrahydroquinolin-1-yl)ethyl]thiophen-2-yl}formamido)-3-cyclopentyl-N-cyclopropylpropanamide] | 16 nM
22 | C[C@H](c1ccc(C(=O)N[C@@H](CC2CCCC2)C(=O)NC2CC2)s1)N1CCCc2ccc(Cl)cc21 [Compound 249, (2S)-2-({5-[(1R)-1-(7-chloro-1,2,3,4-tetrahydroquinolin-1-yl)ethyl]thiophen-2-yl}formamido)-3-cyclopentyl-N-cyclopropylpropanamide] | 156 nM
23 | O=C(N[C@@H](CC1CCCC1)C(=O)NC1CC1)c1ccc([C@@H]2CCc3c(Cl)cccc3N2)s1 [Compound 250, (2S)-2-({5-[(2S)-5-chloro-1,2,3,4-tetrahydroquinolin-2-yl]thiophen-2-yl}formamido)-3-cyclopentyl-N-cyclopropylpropanamide] | 301 nM
24 | O=C(N[C@@H](CC1CCCC1)C(=O)NC1CC1)c1ccc([C@H]2CCc3c(Cl)cccc3N2)s1 [Compound 251, (2S)-2-({5-[(2R)-5-chloro-1,2,3,4-tetrahydroquinolin-2-yl]thiophen-2-yl}formamido)-3-cyclopentyl-N-cyclopropylpropanamide] | 678 nM
25 | Cc1ncc(Cl)cc1N[C@@H](C)c1ccc(C(=O)NC2Cc3ccccc3NC2=O)s1 (stereo partly drawn) [Compound 253, 5-[(1S)-1-[(5-chloro-2-methylpyridin-3-yl)amino]ethyl]-N-(2-oxo-1,2,3,4-tetrahydroquinolin-3-yl)thiophene-2-carboxamide] | > 10000 nM
26 | Cc1ncc(Cl)cc1N[C@@H](C)c1ccc(C(=O)N[C@H](CC23CCC(CC2)CC3)C(=O)NC2CC2)s1 [Compound 255, (2R)-3-{bicyclo[2.2.2]octan-1-yl}-2-({5-[(1S)-1-[(5-chloro-2-methylpyridin-3-yl)amino]ethyl]thiophen-2-yl}formamido)-N-cyclopropylpropanamide] | 4870 nM
27 | Cc1ncc(Cl)cc1N[C@@H](C)c1ccc(C(=O)N[C@@H](CC23CCC(CC2)CC3)C(=O)NC2CC2)s1 [Compound 256, (2S)-3-{bicyclo[2.2.2]octan-1-yl}-2-({5-[(1S)-1-[(5-chloro-2-methylpyridin-3-yl)amino]ethyl]thiophen-2-yl}formamido)-N-cyclopropylpropanamide] | 6 nM
28 | Cc1ncc(Cl)cc1N[C@@H](C)c1ccc(C(=O)N[C@@H](CC2CCCC2)C(=O)NC23CCC(CC2)CC3)s1 [Compound 257, (2S)-N-{bicyclo[2.2.2]octan-1-yl}-2-({5-[(1S)-1-[(5-chloro-2-methylpyridin-3-yl)amino]ethyl]thiophen-2-yl}formamido)-3-cyclopentylpropanamide] | 8 nM
